Source: patent US20230104936A1, “TRPML MODULATORS” (Casma Therapeutics, Inc., priority 2019, published 2023)

System: TFEB
Assay: TFEB nuclear translocation assay, HeLa wt cells
Format: cell-based
Conditions: 2 hrs compound treatment, Table 1 does not say HeLa wt or TRPML1 KO
Method in brief: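 HeLa wt cells were treated with compound for 2 hrs at 37° C, then fixed in 4% PFA and immunostained for TFEB with an Alexa 488 secondary and Hoechst nuclear counterstain. Automated epifluorescence imaging at ×20 gave the ratio of nuclear TFEB intensity to a perinuclear ring region, from which AC50 was derived.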

Structure (SMILES) | AC50 (Homo sapiens, HeLa, 2 h) | AC50
C[C@@H]1CN(CC2CCN(c3c(F)cccc3NS(=O)(=O)c3ccc(S(=N)(=O)N(C)C)cc3)CC2)C[C@H](C)O1 (single isomer, unassigned) [Compound A-810, Rel-N-(2-(4-((2,6-dimethylmorpholino)methyl)piperidin-1-yl)-3-fluorophenyl)-4-(N,N-dimethylsulfamidimidoyl)benzenesulfonamide] | ≤ 2 µM | 
O=S(=O)(Nc1cccc(Cl)c1N1CCC(c2ccc(Cl)cc2F)CC1)c1ccc2c(c1)CCC2 [Compound A-341, N-{3-chloro-2-[4-(4-chloro-2-fluorophenyl)piperidin-1-yl]phenyl}-2,3-dihydro-1H-indene-5-sulfonamide] | ≤ 2 µM | 
CC(c1cccc(F)c1N1CCCCC1)S(=O)(=O)c1ccc2c(c1)CCS2(=N)=O (single isomer, unassigned) [Compound A-959] | ≥ 10 µM | 
CS(=O)(=O)c1ccc(S(=O)(=O)Nc2ccccc2N2CCC(c3c(F)cccc3F)CC2)cc1 [Compound A-124, N-{2-[4-(2,6-difluorophenyl)piperidin-1-yl]phenyl}-4-methanesulfonylbenzene-1-sulfonamide] | ≤ 2 µM | 
CC(c1cccc(F)c1N1CCC(CN2C3CCC2COC3)CC1)S(=O)(=O)c1ccc(S(C)(=O)=O)cc1 (single isomer, unassigned) [Compound A-914, 8-((1-(2-fluoro-6-(1-((4-(methylsulfonyl)phenyl)sulfonyl)ethyl)phenyl)piperidin-4-yl)methyl)-3-oxa-8-azabicyclo[3.2.1]octane] |  | ≥ 10 µM
CN(C)S(=O)(=O)c1ccc(S(=O)(=O)Nc2ccccc2N2CCN(C(=O)C3CCCC3(F)F)CC2)cc1 (stereo not shown) [Compound A-459, N4-{2-[4-(2,2-difluorocyclopentanecarbonyl)piperazin-1-yl]phenyl}-N1,N1-dimethylbenzene-1,4-disulfonamide] | 2.01 to 8 µM | 
CN(C)S(=O)(=O)c1ccc(S(=O)(=O)Nc2ccccc2N2CCC(CNC(C)(C)C)CC2)cc1 [Compound A-415, N4-(2-{4-[(tert-butylamino)methyl]piperidin-1-yl}phenyl)-N1,N1-dimethylbenzene-1,4-disulfonamide] | ≤ 2 µM | 
COCC1(C)CCN(c2ccccc2NS(=O)(=O)Cc2ccc3c(c2)COCC3)CC1 [Compound A-571, 1-(3,4-dihydro-1H-2-benzopyran-7-yl)-N-{2-[4-(methoxymethyl)-4-methylpiperidin-1-yl]phenyl}methanesulfonamide] | 2.01 to 8 µM | 
CN(C)S(=O)(=O)c1ccc(S(=O)(=O)Nc2ccccc2[C@H]2CC[C@@H](c3ccc(Cl)cc3F)CC2)cc1 [Compound A-69, N1-(2-(4-(4-chloro-2-fluorophenyl)cyclohexyl)phenyl)-N4,N4-dimethylbenzene-1,4-disulfonamide] | 2.01 to 8 µM | 
COC(C)C1(C)CCN(c2ccccc2NS(=O)(=O)c2ccc(S(=O)(=O)N(C)C)cc2)CC1 (stereo not shown) [Compound A-741, N4-{2-[4-(1-methoxyethyl)-4-methylpiperidin-1-yl]phenyl}-N1,N1-dimethylbenzene-1,4-disulfonamide] | ≤ 2 µM | 
CN(C)S(=O)(=O)c1ccc(S(=O)(=O)Nc2ccccc2N2CCC(O)(C3CC3)CC2)cc1 [Compound A-420, N4-[2-(4-cyclopropyl-4-hydroxypiperidin-1-yl)phenyl]-N1,N1-dimethylbenzene-1,4-disulfonamide] | 2.01 to 8 µM | 
CC(C)CN1CCN(c2ccccc2CS(=O)(=O)c2ccc(S(=O)(=O)N(C)C)cc2)CC1 [Compound A-599, N,N-dimethyl-4-({2-[4-(2-methylpropyl)piperazin-1-yl]phenyl}methanesulfonyl)benzene-1-sulfonamide] | 2.01 to 8 µM | 
C[C@@H]1CN(CC2CCN(c3c(NS(=O)(=O)c4ccc(S(=O)(=O)N(C)C)cc4)cccc3C3CC3)CC2)C[C@H](C)O1 [Compound A-863, N4-[3-cyclopropyl-2-(4-{[(2R,6S)-2,6-dimethylmorpholin-4-yl]methyl}piperidin-1-yl)phenyl]-N1,N1-dimethylbenzene-1,4-disulfonamide] | ≤ 2 µM | 
